Tests used:
[1] = test system: rat; details: 45 minutes ischemia, up to six hours reperfusion; drug one minute before reperfusion; cited from earlier work
[2] = biological target: T1, human PARP-1 (Homo sapiens, UniProt P09874); test: Poly (ADP-Ribose) Polymerase-1 (PARP-1) in vitro enzyme assay (Universal Colorimetric PARP Assay Kit); type: biochemical; details: letter codes; read-out: extent of inhibition of PARP activity (IC50, micromolar)
T1 construct: purchased Trevigen Inc., Gaithersburg, Md
Source text: Poly (ADP-Ribose) Polymerase-1 (PARP-1) In Vitro Enzyme Assay: Compounds can be screened for inhibitory activity against human PARP-1 in vitro using the Universal Colorimetric PARP Assay Kit (Trevigen Inc., Gaithersburg, Md.) as directed by the supplier. Compounds can be assayed in duplicate in 0.5% DMSO final concentration, negative control is no enzyme, while positive control is DMSO vehicle alone. IC50 determinations can be made using Microsoft Excel. For all cell assays, compounds can be added to cells in 5% DMSO/PBS for a final concentration of 0.5% DMSO.

[3] = test system: rats; details: hemorrhagic shock and resuscitation; cited from earlier work
[4] = test system: mouse; details: mouse arthritis; inflammatory cell infiltration, hyperplasia of the synovium, tissue necrosis; cited from earlier work
[5] = test system: Mice; details: eleven minutes aortic ischemia, 48 hours reperfusion, cited from earlier work
[6] = test system: PARP-1; details: agent alone; cited from earlier work
[7] = test system: vascular smooth muscle cells in tumors; details: cited from earlier work

T1 sequence (P09874 whole entry): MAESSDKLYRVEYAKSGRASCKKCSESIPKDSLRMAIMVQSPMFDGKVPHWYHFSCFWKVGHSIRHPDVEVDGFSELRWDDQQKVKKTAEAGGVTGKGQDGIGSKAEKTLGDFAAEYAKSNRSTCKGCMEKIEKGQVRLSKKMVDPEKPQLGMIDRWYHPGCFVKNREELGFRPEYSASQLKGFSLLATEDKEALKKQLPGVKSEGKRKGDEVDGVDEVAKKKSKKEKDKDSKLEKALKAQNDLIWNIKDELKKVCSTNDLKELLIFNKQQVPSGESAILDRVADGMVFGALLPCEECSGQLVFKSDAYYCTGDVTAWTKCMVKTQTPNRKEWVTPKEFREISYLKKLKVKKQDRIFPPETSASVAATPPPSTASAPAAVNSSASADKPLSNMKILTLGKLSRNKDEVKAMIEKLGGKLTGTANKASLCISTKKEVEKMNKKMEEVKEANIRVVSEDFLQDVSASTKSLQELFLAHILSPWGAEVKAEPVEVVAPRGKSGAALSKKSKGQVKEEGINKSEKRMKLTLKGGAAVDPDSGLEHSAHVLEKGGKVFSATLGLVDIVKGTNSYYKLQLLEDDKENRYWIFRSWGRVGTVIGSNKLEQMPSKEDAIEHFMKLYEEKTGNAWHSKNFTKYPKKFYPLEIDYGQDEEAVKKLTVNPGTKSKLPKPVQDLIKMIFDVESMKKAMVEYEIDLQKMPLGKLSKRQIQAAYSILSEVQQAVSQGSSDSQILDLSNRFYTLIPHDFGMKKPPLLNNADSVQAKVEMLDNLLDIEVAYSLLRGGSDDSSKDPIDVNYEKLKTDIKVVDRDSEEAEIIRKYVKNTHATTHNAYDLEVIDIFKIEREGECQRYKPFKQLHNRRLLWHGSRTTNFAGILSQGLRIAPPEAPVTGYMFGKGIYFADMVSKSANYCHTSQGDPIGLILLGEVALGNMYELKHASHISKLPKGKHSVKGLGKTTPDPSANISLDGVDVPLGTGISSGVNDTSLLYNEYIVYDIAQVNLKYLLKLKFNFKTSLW

Row | SMILES | IC50 [2] [µM] | other results
1 | Oc1cccc2c(O)nccc12 [1,5-dihroxyisoquinoline] | – | kidney function (plasma urea, plasma creatinine, glomerular filtration rate) [1]: improved kidney function
2 | NC(=O)c1cccc2[nH]c(C3NCCc4ccccc43)nc12 (stereo not shown) [2-(1,2,3,4-Tetrahydroisoquinolin-1-yl)-1H-benzo[d]imidazole-4-carboxamide] | < 0.5 | –
3 | NC(=O)c1cccc2[nH]c(C3Cc4ccccc4CN3)nc12 (stereo not shown) [2-(1,2,3,4-Tetrahydroisoquinolin-3-yl)-1H-benzo[d]imidazole-4-carboxamide] | < 0.5 | –
4 | NC(=O)c1cccc2[nH]c(C3CCc4ccccc4N3)nc12 (stereo not shown) [2-(1,2,3,4-Tetrahydroquinolin-2-yl)-1H-benzo[d]imidazole-4-carboxamide] | < 0.5 | –
5 | CC1(c2nc3c(C(N)=O)cccc3[nH]2)Cc2ccccc2CN1 (stereo not shown) [2-(3-Methyl-1,2,3,4-tetrahydroisoquinolin-3-yl)-1H-benzo[d]imidazole-4-carboxamide] | < 0.5 | –
6 | NC(=O)c1cccc2[nH]c(C3Cc4ccc(N)cc4CN3)nc12 (stereo not shown) [2-(7-Amino-1,2,3,4-tetrahydroisoquinolin-3-yl)-1H-benzo[d]imidazole-4-carboxamide] | < 0.5 | –
7 | NC(=O)c1cccc2[nH]c(C3Cc4ccccc4N3)nc12 (stereo not shown) [2-(Indolin-2yl)-1H-benzo[d]imidazole-4-carboxamide] | < 0.5 | –
8 | NC(=O)c1cccc2[nH]c(C3NCc4ccccc43)nc12 (stereo not shown) [2-(Isoindolin-1-yl)-1H-benzo[d]imidazole-4-carboxamide] | < 0.5 | –
9 | NC(=O)c1cccc(N)c1 [3-aminobenzamide] | – | kidney function (plasma urea, plasma creatinine, glomerular filtration rate) [1]: improved kidney function
10 | Nc1cccc2cnccc12 [5-aminoisoquinoline] | – | leukocyte-endothelial interaction [3]: decreased leukocyte-endothelial interaction; liver function [3]: improved liver function; liver injury [3]: decreased liver injury
11 | Nc1ccc2oc(=O)ccc2c1I [5-iodo-6-amino-1,2-benzopyrone] | – | severity of the disease as assessed by histological parameters [4]: reduced the severity of the disease
12 | NC(=O)c1cccc2[nH]c(C3c4ccccc4CCN3C(=O)OCc3ccccc3)nc12 (stereo not shown) [Benzyl 1-(4-carbamoyl-1H-benzo[d]imidazol-2-yl)-3,4-dihydroisoquinoline-2(1H)-carboxylate] | > 2 | –
13 | NC(=O)c1cccc2[nH]c(C3c4ccccc4CN3C(=O)OCc3ccccc3)nc12 (stereo not shown) [Benzyl 1-(4-carbamoyl-1H-benzo[d]imidazol-2-yl)isoindoline-2-carboxylate] | > 2 | –
14 | NC(=O)c1cccc2[nH]c(C3Cc4ccccc4N3C(=O)OCc3ccccc3)nc12 (stereo not shown) [Benzyl 2-(4-carbamoyl-1H-benzo[d]imidazol-2-yl)indoline-1-carboxylate] | > 2 | –
15 | NC(=O)c1cccc2[nH]c(C3Cc4ccccc4CN3C(=O)OCc3ccccc3)nc12 (stereo not shown) [Benzyl 3-(4-carbamoyl-1H-benzo[d]imidazol-2-yl)-3,4-dihydroisoquinoline-2-(1H)-carboxylate] | 0.5 to 2 | –
16 | CC1(c2nc3c(C(N)=O)cccc3[nH]2)Cc2ccccc2CN1C(=O)OCc1ccccc1 (stereo not shown) [Benzyl 3-(4-carbamoyl-1H-benzo[d]imidazol-2-yl)-3-methyl-3,4-dihydroisoquinoline-2(1H)-carboxylate] | > 2 | –
17 | CN(C)CC(=O)Nc1ccc2[nH]c(=O)c3ccccc3c2c1 [PJ34] | – | fibrinolysis stimulated by the ischemia-reperfusion [5]: no apparent affect; steady state levels of a marker for neutrophil infiltration [5]: decrease steady state levels; renal mitochondrial activity ([5]; treated 1 hour before and immediately after ischemia): preserve renal mitochondrial activity
18 | CC[C@@]1(O)C(=O)OCc2c1cc1n(c2=O)Cc2cc3ccccc3nc2-1 [camptothecin] | – | activation of PARP-1 [6]: four-fold activation
19 | COc1cc([C@@H]2c3cc4c(cc3[C@@H](O[C@@H]3O[C@@H]5CO[C@@H](C)O[C@H]5[C@H](O)[C@H]3O)[C@H]3COC(=O)[C@H]23)OCO4)cc(OC)c1O [etoposide] | – | activation of PARP-1 [6]: failed to induce PARP-1
20 | NC(=O)c1cccnc1 [nicotinamide] | – | contraction of vascular smooth muscle cells in tumors [7]: inhibit contraction
21 | CC(C)(C)OC(=O)N1c2ccccc2CCC1c1nc2c(C(N)=O)cccc2[nH]1 (stereo not shown) [tert-Butyl 2-(4-carbamoyl-1H-benzo[d]imidazol-2-yl)-3,4-dihydroquinoline-1(2H)-carboxylate] | > 2 | –
22 | CC(C)(C)OC(=O)Nc1ccc2c(c1)CN(C(=O)OC(C)(C)C)C(c1nc3c(C(N)=O)cccc3[nH]1)C2 (stereo not shown) [tert-Butyl 7-((tert-butoxycarbonyl)amino)-3-(4-carbamoyl-1H-benzo[d]imidazol-2-yl)-3,4-dihydroisoquinoline-2(1H)-carboxylate] | > 2 | –
23 | CC(C)(C)OC(=O)N1Cc2cc(N)ccc2CC1c1nc2c(C(N)=O)cccc2[nH]1 (stereo not shown) [tert-Butyl 7-amino-3-(4-carbamoyl-1H-benzo[d]imidazol-2-yl)-3,4-dihydroisoquinoline-2(1H)-carboxylate] | > 2 | –
24 | CC(C)(C)OC(=O)Nc1ccc2c(c1)CNC(c1nc3c(C(N)=O)cccc3[nH]1)C2 (stereo not shown) [tert-Butyl (3-(4-carbamoyl-1H-benzo[d]imidazol-2-yl)-1,2,3,4-tetrahydroisoquinolin-7-yl)carbamates] | > 2 | –
